{"source": "patent US12377095B2", "about": "“Use of ligustrazine nitrone derivatives in treatment and prevention of diabetic complication diseases” (QINGDAO HAILAN PHARMACEUTICALS CO., LTD., priority 2019, dated 2025)", "key": {"[1]": {"test_system": "STZ-induced DKD rats", "test": "Retinopathy of STZ-induced DKD rats", "format": "in vivo, rat", "conditions": "DKD rats after treatment, Table 1 (FIG. 5)", "description": "SD rats (200±10 g) were used as model animals, which were fasted for 12 h before injection. STZ was dissolved in citrate buffer at 1% concentration, and rats were fasted and intraperitoneally injected with 55 mg/kg STZ and placed in the cage, the rats being ensured with adequate water intake for 24 h. STZ injections need to be fast and complete within 10 minutes of injection. The normal control group was injected with an equal volume of pH 4.5 citric acid-sodium citrate buffer. The state of the animals (multiple drinking and polyuria) was observed. After 3 weeks of STZ injection, blood was collected from the tail vein, and fasting blood glucose ≥16.7 mmol/L was measured as the standard for diabetic nephropathy in rats.\nDKD rats were randomly assigned to 6 groups and given with different drugs. After 6 weeks of administration, the experiment was terminated and the protective effect of the drug on DKD rats was observed.\nDuring the experiment, the retinopathy of rats was observed during daily administration, and the dates of retinopathy in different groups of rats were recorded."}, "[2]": {"test_system": "STZ-induced SHR rats", "test": "HE kidney morphology of STZ-induced SHR rats", "format": "in vivo, rat", "conditions": "60 mg/kg", "description": "6 W-age SHR rats were abstained from food but not water for 12 h before injection, and then intraperitoneally injected with 55 mg/kg STZ after weighing (STZ required for fast injection, to be completed within 10 min), then put back to the cage to ensure that rat has sufficient drinking water in the period of 24 h, and the rats of normal control group were injected with citric acid buffer (pH 4.5) in the same volume. After 3 weeks of STZ injection, retinal venous blood was collected, and blood glucose ≥16.7 mmol/L was used as a molding standard, where the model of SHR rats that meet the above criteria is considered successful.\nThe route of administration is intragastrical, TBN is administered twice a day (fixed at 9:00-10:00 am and 3:00-4:00 pm), and Losartan is administered once a day (fixed at 9:00-10:00 am), continuously for 6 weeks.\nThe process is the same as in Example 9."}, "[3]": {"test_system": "spontaneous diabetic model in rhesus monkeys", "test": "Spontaneous diabetic model in rhesus monkeys, serum EPO and iron", "format": "in vivo"}, "[4]": {"test_system": "db/db mice", "test": "24 h urine microalbumin in db/db mice", "format": "in vivo, mouse", "conditions": "TBN 10, 30, 60 mg/kg, end of 6 weeks; especially 30 and 60 mg/kg (P<0.001)", "source_text": "db/db mice are congenital obese type 2 DKD mice with spontaneous mutations in the leptin receptor (Leptin receptor, Lepr) due to a point mutation in the leptin receptor gene GT located on chromosome 4. The course of polyphagia, polyuria, diabetes and hyperglycemia is similar to that of humans, and it is currently the most widely used type 2 spontaneous animal model of DKD. The db/db mice have a series of complications with the aggravation of diabetes. The main pathological changes of renal tissue are the expansion of the glomerular mesangial interstitium, the thickening of the glomerular basement membrane, and the excessive accumulation of extracellular matrix. However, the glomerular mesangium of db/db mice changes relatively slowly, and the glomerular mesangium will not be dissolved or nodular glomerulosclerosis, and there is no progressive renal insufficiency. […]\ndb/db mice were tested for 24 h urine microalbumin in the 4th and 6th week after drug treatment. […] The absorbance value (OD value) was measured at 450 nm wavelength; the blank control hole was used for adjusting zero, the microalbuminuria standard concentration was used as the abscissa, the OD value as the ordinate, the standard curve regression equation was calculated, and on the basis of the regression equation and the sample's OD value, the concentration of the sample was determined."}}, "data": [{"compound": "Cc1nc(C)c(/C=[N+](\\[O-])C(C)(C)C)nc1C", "note": "[TBN]", "values": [{"measurement": "number of retinopathy", "setting": "[1]", "value": "reduced"}, {"measurement": "time when retinopathy occurred", "setting": "[1]", "value": "relatively delayed"}, {"measurement": "renal pathological changes (H&E)", "setting": "[2]", "value": "improvement"}, {"measurement": "serum EPO content", "setting": "[3]", "value": "increase"}, {"measurement": "serum iron content", "setting": "[3]", "value": "increase"}, {"measurement": "24 h urine microalbumin production", "setting": "[4]", "value": "dose-dependently reduced"}]}]}
